Results on 3 molecules are retold here after US20200087326A1, “DEEP RED FLUORESCENT PROBE” (The University of Tokyo, priority 2016, published 2020).

A short description of data set [1]: Evaluation of compounds A-C as Ca^2+ probes (fluorescence intensity vs free Ca^2+). The format is binding. The protocol: To investigate whether the synthesized compounds A, B, and C can function as Ca^2+ probes, the absorption and fluorescence spectra were measured in solutions of various Ca^2+ concentrations. FIG. 7 represents the absorption spectra (left), emission spectra (center), and fluorescence spectra (right) of 1 μM of compounds A, B, and C in the presence of various concentrations ([…])propanesulfonic acid (MOPS) containing […] and […] (EGTA). The excitation wavelengths were 646 nm (A), 648 nm (B), and 635 nm (C).

Data set [2] can be described thus: Absorption and fluorescence spectra (photophysical properties) of compounds A-C in solutions of various Ca^2+ concentrations. It is filed as physicochemical. The settings on record: 1 μM compound, pH 7.2 MOPS. How it is done: To investigate whether the synthesized compounds A, B, and C can function as Ca^2+ probes, the absorption and fluorescence spectra were measured in solutions of various Ca^2+ concentrations. FIG. 7 represents the absorption spectra (left), emission spectra (center), and fluorescence spectra (right) of 1 μM of compounds A, B, and C in the presence of various concentrations (0, 0.017, 0.038, 0.065, 0.100, 0.150, 0.225, 0.351, […]) of free Ca^2+ in pH 7.2 30 mM 3-(N-morpholino)propanesulfonic acid (MOPS) containing […] and […] (EGTA). The excitation wavelengths were 646 nm (A), 648 nm (B), and 635 nm (C).

The mark [3] stands for this setting: 39 μM vs 0 μM free [Ca^2+] buffer.
The mark [4] stands for this setting: In 0 μM free [Ca^2+] buffer (absence of Ca^2+).

Take `Cc1ccc(N(CC(=O)O)CC(=O)O)c(OCCOc2cc(NC(=O)C/[N+](C)=C3/C=CC4=C(c5ccccc5C(=O)[O-])c5ccc(N(C)C)cc5[Si](C)(C)C4=C3)ccc2N(CC(=O)O)CC(=O)O)c1` [Compound C]: the “Activation Ratio” value in data set [1] (setting [3]) was “×26”; in data set [1] (with vs without Ca^2+), 26 fold. The Φfl in data set [2] (setting [4]) is 0.01; in data set [2] (In 39 μM free [Ca^2+] buffer), 0.26. The λabs worked out at 637 nm in data set [2] (In 0 μM free [Ca^2+] buffer) and 636 nm in data set [2] (In 39 μM free [Ca^2+] buffer). The λfl is given as 664 nm in data set [2] (In 0 μM free [Ca^2+] buffer) and 661 nm in data set [2] (In 39 μM free [Ca^2+] buffer).

In the case of `Cc1ccc(N(CC(=O)O)CC(=O)O)c(OCCOc2cc(NC(=O)c3ccc(C4=C5C=CC(=[N+](C)C)C=C5[Si](C)(C)c5cc(N(C)C)ccc54)c(C(=O)O)c3)ccc2N(CC(=O)O)CC(=O)O)c1` [Compound A], the “Activation Ratio” value in data set [1] (setting [3]) was “×2.5”; in data set [1] (with vs without Ca^2+) it was 2.5 fold. The Φfl in data set [2] (setting [4]) is given as 0.10; in data set [2] (In 39 μM free [Ca^2+] buffer), 0.25. The λabs in data set [2] (In 0 μM free [Ca^2+] buffer) and in data set [2] (In 39 μM free [Ca^2+] buffer) was 646 nm each time. Besides, the figures for the λfl in data set [2] (In 0 μM free [Ca^2+] buffer) and in data set [2] (In 39 μM free [Ca^2+] buffer) were 673 nm and 674 nm, respectively.

Regarding `Cc1ccc(N(CC(=O)O)CC(=O)O)c(OCCOc2cc(NC(=O)c3ccc(C(=O)O)c(C4=C5C=CC(=[N+](C)C)C=C5[Si](C)(C)c5cc(N(C)C)ccc54)c3)ccc2N(CC(=O)O)CC(=O)O)c1` [Compound B], in data set [1] (setting [3]), the “Activation Ratio” value is “×7.3”. In addition, in data set [2] (setting [4]), the Φfl came to 0.04. In data set [2] (In 0 μM free [Ca^2+] buffer), this molecule displayed a λabs of 648 nm and a λfl of 671 nm. Moreover, in data set [2] (In 39 μM free [Ca^2+] buffer), the Φfl stood at 0.29, the λabs stood at 647 nm and the λfl was found to be 672 nm.
